Results on nine compounds are retold here after patent US8329685B1, “Enhancement of the action of anti-infective agents and of central and peripheral nervous system agents and transportation of nucleic acid substances” (priority 2001, dated 2012).

In brackets after ≈: the same amount, converted by molar mass. Entries after “also recorded” stand apart in the source; their conditions may differ. Where two headings read alike, the source gives them in different places.

For series [1], the system named is melanoma cells (UCT MeI 1 cell line) incubated with fungi. Particulars: 0.2%.
For series [2], the system named is Plasmodium Falciparum drug resistant reference strain W2. Conditions: read-out: 50% Inhibition concentration value (IC50); free Chloroquine; known value of strain W2; cited from earlier work.
For series [3] the test system is unchanged. In words: Growth of malaria parasites in human erythrocyte cultures (% parasitaemia, Giemsa smears). Format: cell-based. The text has this:
The specific parasite investigated was the reference drug resistant strain W2 of the species Plasmodium Falciparum. Plasmodium Falciparum is the most commonly occurring as well as the most virulent malaria parasite currently known in man.
The system used in this investigation aims to mimic the live situation as closely as possible. For that reason, the parasites were infected into fresh primary erythrocytes isolated from O+ or A+ blood donors.
Furthermore, human serum prepared from the same donors was used as an adjuvant instead of foetal calf serum. Parasite growth was maintained by the addition of freshly prepared erythrocytes from the same donors.
The growth of the parasites was determined by visualization of the parasite DNA on thin smears of the infected cultures. Since mature erythrocytes contain no nucleus, and therefore no DNA, the only DNA present was of parasitic origin. Only intracellular parasites were included in determining the percentage parasitaemia, as extracellular parasites are no longer viable.
A. Culturing of Malaria Parasites: • 1. Preparation of fresh human erythrocytes • 2. Preparation of human serum from the same donor. • 3. Quality control of human serum. • 4. Infection of erythrocyte cultures with parasites. Initial infection load was 0.5% parasitaemia. • 5. Maintenance of parasite blood cultures • 6. The parasite percentage in the blood cultures was determined after 36 or 48 hours, depending on the level of infection of the freshly added erythrocytes.
A stock solution of 10 mM chloroquine solution in a 1:250 dilution of nanolipid formulation was made by vortexing and sonication. All concurrent dilutions were from this stock.
D Drug Delivery by MZL Nanolipid Formulations: • 1 Penetrance of nanolipid formulations in red blood cells was determined by microscopic visualization, as were the penetrance of chloroquine-carrying nanolipid formulations. • 2. […] Typically 48-well plates or 96-well plates were used. 200 ul or 100 ul total culture volumes were used respectively, of which 90% of the volume was infected erythrocyte culture. 10% volume was used for the treatment, be it chloroquine in Nanolipid formulation, chloroquine in water, or for the controls 1:250 pure Nanolipid formulation, pure culturing media or water only. • 4. All series were in duplicate.
Parasitic DNA was visualised by Giemsa staining of thin smears. Ethidium bromide or acridine orange may be used for fluorescent staining.
The % infection after applicable incubation periods was determined as follows: […]

The test system of series [4] is S. Aureus and P. Aeruginosa. The series can be described thus: Zone of inhibition study of Povidone iodine. Format: cell-based. Particulars: formulated with the nanolipid vesicles of Preparation 2; 6.30 g Povidone iodine in 100 g; FIG. 2.
For series [5] the following is noted: human, in vivo.
Series [6] has as its system HIV subtype D viruses in CD4 helper T-cells (CEM-SS cell line). The series can be described thus: HIV viral load (p24 core antigen ELISA) in infected CD4 helper T-cells. Format: cell-based, HIV-1. How it is done: The following protocols were followed in this investigation: • a) Several cultures of CD4 helper T-cells (CEM-SS cell line; NIH AIDS Research and Reference Reagent Program) were infected with HIV subtype D viruses at applicable cell seeding densities and viral loads. Cells were maintained in tissue culture under standard culturing conditions. • b) The viral load in cultured cells were determined every day for 7 consecutive days after infection by measuring the p24 core antigen of HIV-1 in the supernatant culturing fluid by ELISA. This assay is based on a colour change after addition of substrate that is proportionate to the viral replication in each culture. The colour change is monitored by absorbance spectrophotometry at 450 nm. Negative control absorbance readings were used to calculate the absorbance/cut-off for each culture. • c) Determination of the optimal concentration of nanolipid-vesicle containing base formulation was done by cytotoxicity assays and cell growth curves. The cytotoxicity assay used was the standard MTT assay and spectrophotometry was once again used to determine cell viability for the CEM-SS cell line. Growth curves were used to determine the optimal concentration of base formulation for human macrophage cells (THP-1 cell line).

For series [7] the following is noted: 20° C. and 2 atm pressure; cited from earlier work.
Series [8] relates to M. tuberculosis H37Rv. The series can be described thus: BACTEC growth index with Ethambutol with and without MZL. Particulars: for inhibition at 0.0325 µg/mL: 0.0325 μg/ml Ethambutol; for inhibition at 0.0625 µg/mL: 0.0625 μg/ml Ethambutol; for inhibition at 0.125 µg/mL: 0.125 μg/ml Ethambutol; for inhibition at 0.25 µg/mL: 0.25 μg/ml Ethambutol; for inhibition at 0.5 µg/mL: 0.5 μg/ml Ethambutol; for inhibition at 1 µg/mL: 1.0 μg/ml Ethambutol. Format: cell-based, Mycobacterium tuberculosis.

Series [9] deals with BCG (Bacillus of Calmette and Guerin). Conditions: after a two-hour incubation; free drug.
Setting [10] is: Mycobacterium tuberculosis, H37RV, Minus MZL.
Setting [11] is: Mycobacterium tuberculosis, H37RV, Plus MZL.

With `Clc1ccc(COC(Cn2ccnc2)c2ccc(Cl)cc2Cl)c(Cl)c1` (centres unmarked) [Free Miconazole, Miconazole nitrate], the presence of fungi entry in series [1] (4 hours incubation) is reported as “fungi were still present in large numbers”. The “viability / state of human melanoma cells” value in [1] (4 hours incubation with fungi, listed as free Miconazole nitrate) is “decline dramatically; also recorded: cells were no longer attached to the petri dish”.

As to `CCN(CC)CCCC(C)Nc1ccnc2cc(Cl)ccc12` (centres unmarked) [Chloroquine], the IC50 in series [2] was 200 to 300 nM. The “% Parasit” value in [3] (1 nM chloroquine) came out at 2.67%; in series [3] (5 nM chloroquine) it was 2.33%; in series [3] (10 nM chloroquine), 2.96%; in series [3] (25 nM chloroquine), 2.84%; in [3] (50 nM chloroquine) it was 2.7%; in series [3] (75 nM chloroquine) it was 3.33%. In addition, the “% Parasit” value in series [3] (100 nM chloroquine) stood at 2.81%; in series [3] (200 nM chloroquine), 2.87%; in series [3] (300 nM chloroquine), 1.8%; in series [3] (500 nM chloroquine), 1.5%; in series [3] (1000 nM chloroquine) it was 1.4%.

With Povidone iodine, in [4], the “inhibition of bacterial growth versus free active” value is given as “dramatically increased”.

Consider `NNC(=O)c1ccncc1` [INH, Isoniazid], for which the “bioavailability versus comparator Rifafour” value in [5] is reported as “enhanced bioavailability”.

In the case of `Cc1cn([C@H]2C[C@H](N=[N+]=[N-])[C@@H](CO)O2)c(=O)[nH]c1=O` [free AZT, AZT], the “inhibition of viral growth and replication compared to the control” value in series [6] (0.1 nM free AZT, by day 7 and 8) was 44%. Moreover, the “AZT concentration at which viral inhibition is optimal” value in series [6] (dilution of base-formulation 1:256) lay within 0.5 to 1 nM.

For the compound `[N-]=[N+]=O` [Nitrous oxide], the solubility in water entry in series [7] is on record as “one liter of the gas dissolves in 1.5 liters of water”.

With `CC[C@@H](CO)NCCN[C@@H](CC)CO` [Ethambutol], the “inhibition maintained with MZL” value in [8] (MZL treated, over the range of 0.03125 μg/ml-0.125 μg/ml Ethambutol) was “approx 50%”. Besides, the MIC in [8] (Mycobacterium tuberculosis, H37RV) is approximately 1 µg/mL (≈ 4.89 µM). In addition, the inhibition at 0.0325 µg/mL in series [8] (Mycobacterium tuberculosis, H37RV, Minus MZL, read-out: % Inhibition) is -21%. For the same compound, in series [8] (setting [10]), the inhibition at 0.0625 µg/mL is -16%, the inhibition at 0.125 µg/mL is -12%, the inhibition at 0.25 µg/mL stood at 51% and the inhibition at 0.5 µg/mL is 81%. In addition, in series [8] (setting [10]), the inhibition at 1 µg/mL was determined as 92%. In addition, in [8] (setting [11]), the inhibition at 0.0325 µg/mL was found to be 48%, the inhibition at 0.0625 µg/mL is 49%, the inhibition at 0.125 µg/mL was 52% and the inhibition at 0.25 µg/mL came to 51%. In [8] (setting [11]), the inhibition at 0.5 µg/mL worked out at 62% and the inhibition at 1 µg/mL came to 86%.

As to `NC(=O)c1cnccn1` [free Pyrazinamide, Pyrazinamide], in [5], the “bioavailability versus comparator Rifafour” value is “enhanced bioavailability”. Moreover, the BCG-viability in series [9] is 68-72%.

`CO[C@H]1/C=C/O[C@@]2(C)Oc3c(C)c(O)c4c(O)c(c(/C=N/N5CCN(C)CC5)c(O)c4c3C2=O)NC(=O)/C(C)=C\C=C\[C@H](C)[C@H](O)[C@@H](C)[C@@H](O)[C@@H](C)[C@H](OC(C)=O)[C@@H]1C` [Rifampicin]: in series [5] (female), the “increase of coverage by the nanolipid delivery system” value is on record as 180% and the “total average increase in bioavailability by Nanolipid delivery system” value was 227%. Moreover, the Tmax in [5] (female, po) turned out to be 1 h.
